Our source for the IC50 values is patent US10576064B2, “Spiro[3H-indole-3,2′-pyrrolidin]-2(1H)-one compounds and derivatives as MDM2-P53 inhibitors” (Boehringer Ingelheim International GmbH, priority 2014, dated 2020).

The target of this experiment is p53-MDM2 interaction (GST-MDM2 protein aa 23-117 / biotinylated p53 wt peptide) (Homo sapiens (Human), UniProt Q00987). Kind of experiment: MDM2-p53 Inhibition AlphaScreen. In kind it is biochemical. To be noted: 20 nM GST-MDM2 (aa 23-117), 20 nM biotinylated p53 wt peptide. An excerpt: MDM2-p53 Inhibition AlphaScreen
For orientation: In Alpha technology, singlet oxygen from a donor bead excites a nearby acceptor bead.

As for `COc1cc(C(=O)O)ccc1N1CC[C@H]2[C@@H](C1=O)[C@H](c1cccc(Cl)c1F)[C@]1(C(=O)Nc3cc(Cl)ccc31)N2CC1CCC1` [Compound I-200], half-maximal inhibition (IC50) required 134 nM.

With `CC(C)(C)CN1[C@H]2CCN(c3ccc(C(=O)O)cc3)C(=O)[C@H]2[C@H](c2cccc(Cl)c2F)[C@]12C(=O)Nc1cc(Cl)ccc12` [Compound I-202], half-maximal inhibition (IC50) was put at 48 nM. In turn, `O=C(O)c1ccc(N2CC[C@H]3[C@@H](C2=O)[C@H](c2cccc(Cl)c2F)[C@]2(C(=O)Nc4cc(Br)ccc42)N3CC2CC2)cc1` [Compound I-204] gave an IC50 of 15 nM. The value for `Cc1cc(N2CC[C@H]3[C@@H](C2=O)[C@H](c2cccc(Cl)c2F)[C@]2(C(=O)Nc4cc(Cl)ccc42)N3CC2CC2)cc(C)c1C(=O)O` [Compound I-206] was 46 nM. Consider `O=C(O)c1ccc(CN2CC[C@H]3[C@@H](C2=O)[C@H](c2cccc(Cl)c2F)[C@]2(C(=O)Nc4cc(Cl)ccc42)N3CC2CC2)cc1` [Compound I-208], for which 210 nM corresponded to half-maximal inhibition (IC50). The value for `CC(C)(C)CN1[C@H]2CCN(Cc3ccc(C(=O)O)cc3)C(=O)[C@H]2[C@H](c2cccc(Cl)c2F)[C@]12C(=O)Nc1cc(Cl)ccc12` [Compound I-210] was 158 nM; that for `CCOc1cccc(CN2[C@H]3CCN(Cc4ccc(C(=O)O)cc4)C(=O)[C@H]3[C@H](c3cccc(Cl)c3F)[C@]23C(=O)Nc2cc(Cl)ccc23)c1` [Compound I-212] was 21 nM. `COc1cccc(CN2[C@H]3CCN(Cc4ccc(C(=O)O)cc4)C(=O)[C@H]3[C@H](c3cccc(Cl)c3F)[C@]23C(=O)Nc2cc(Cl)ccc23)c1` [Compound I-214] yielded an IC50 of 34 nM.

Turning to `O=C(O)c1ccc(N2C[C@H]3[C@@H](C2=O)[C@H](c2cccc(Cl)c2F)[C@]2(C(=O)Nc4cc(Cl)ccc42)N3CC2CC2)cc1` [Compound I-216], the IC50 came out at 6 nM.

As to `O=C(O)c1ccc(N2C[C@H]3[C@@H](C2=O)[C@H](c2cccc(Cl)c2F)[C@]2(C(=O)Nc4cc(Cl)ccc42)N3CC2CC2)cc1` [Compound I-217], the midpoint of inhibition, the IC50, lay at 5 nM. The value for `O=C(O)c1ccc(N2C[C@@H]3[C@H](C2=O)[C@@H](c2cccc(Cl)c2F)[C@@]2(C(=O)Nc4cc(Cl)ccc42)N3CC2CC2)cc1` [Compound I-218] was 460 nM. Turning to `COc1cc(C(=O)O)ccc1N1C[C@H]2[C@@H](C1=O)[C@H](c1cccc(Cl)c1F)[C@]1(C(=O)Nc3cc(Cl)ccc31)N2CC1CC1` [Compound I-219], the IC50 was found to be 31 nM. Under `O=C(O)c1ccc(N2C[C@H]3[C@@H](C2=O)[C@H](c2cccc(Cl)c2F)[C@]2(C(=O)Nc4cc(Cl)ccc42)N3CC2CCC2)cc1` [Compound I-221] stands 7 nM. `O=C(O)c1ccc(N2C[C@@H]3[C@H](C2=O)[C@@H](c2cccc(Cl)c2F)[C@@]2(C(=O)Nc4cc(Cl)ccc42)N3CC2CCC2)cc1` [Compound I-223] gave an IC50 of 271 nM. Under `COCCN1[C@H]2CN(c3ccc(C(=O)O)cc3)C(=O)[C@H]2[C@H](c2cccc(Cl)c2F)[C@]12C(=O)Nc1cc(Cl)ccc12` [Compound I-224] stands 17 nM. In turn, `O=C(O)c1ccc(N2C[C@H]3[C@@H](C2=O)[C@H](c2cccc(Cl)c2F)[C@]2(C(=O)Nc4cc(Cl)ccc42)N3CCC(F)(F)F)cc1` [Compound I-226] came in with an IC50 of 12 nM.

As for `CC(C)(C)CN1[C@H]2CN(c3ccc(C(=O)O)cc3)C(=O)[C@H]2[C@H](c2cccc(Cl)c2F)[C@]12C(=O)Nc1cc(Cl)ccc12` [Compound I-228], the IC50 is 11 nM.

`CC(C)(C)CN1[C@H]2CN(c3ccc(C(=O)O)cc3)C(=O)[C@H]2[C@H](c2cccc(Cl)c2F)[C@]12C(=O)Nc1cc(Cl)ccc12` [Compound I-229] returned an IC50 of 5 nM.

`O=C(O)c1ccc(N2C[C@H]3[C@@H](C2=O)[C@H](c2cccc(Cl)c2F)[C@]2(C(=O)Nc4cc(Cl)ccc42)N3CC2CC(F)(F)C2)cc1` [Compound I-230]: the IC50 was determined as 5 nM. `O=C(O)c1csc(N2C[C@H]3[C@@H](C2=O)[C@H](c2cccc(Cl)c2F)[C@]2(C(=O)Nc4cc(Cl)ccc42)N3CC2CC2)n1` [Compound I-233] showed an IC50 of 9 nM.

Usually IC50 stands for the concentration needed to halve the response being measured. A high value points to weaker potency in that assay.
